These results are taken from US7683045B2, “Class of γδ T cells activators and use thereof” (Innate Pharma S.A., priority 2005, dated 2010).

In test [1] the test system is primary polyclonal human Vγ9Vδ2 T cells. The experiment in a line: TNFα release (cytokine release) assay. As to conditions: for relative potency in words: TNFα release assay, comparison of the tested compounds. The test is classed as cell-based. The method, then: Cells (primary polyclonal human Vγ9Vδ2 T cells which have been expanded in vitro and stored frozen at day 12-15 of expansion) are thawed and rinsed twice and centrifuged. Upon elimination of supernatant and resuspension of cells, the cells are incubated for 24 h at 37° C. in the presence of IL2 100 IU/ml (final concentration). The cells are washed and centrifuged, following which the supernatant is eliminated and the cells are resuspended and adjusted to the adequate final concentration. The cells are added to the wells of a 96-well plate.
To one row of wells is added a standard dilution series of (R,S)-3-(bromomethyl)-3-butanol-1-yl-diphosphate (R,S-BrHPP). Compounds to be tested, in this case (E)-4-hydroxy-3-methyl-2-butenyl pyrophosphate ((E)-HDMAPP) and the HAngelylPP and HTiglylPP compounds of the Angelyl/Tiglyl phosphoester series are added to experimental wells, after several dilutions.
Full plates are incubated 24 hours at 37° C. for stimulation of the γδ cells with the test compound and reference compounds, in this case HAngelylPP and HTiglylPP, (R,S)—BrHPP and (E) —HDMAPP, as further described below. After this time, 100 μl of culture supernatant is taken for TNFα dosage. Measurement of the released TNFα dosage is performed as described by the manufacturer's instruction in the TNFα enzyme immunoassay kit (ref. 11121, Immunotech—Beckman Coulter). OD at 405 nm is read, the OD being proportional to the concentration of released TNFα in the culture supernatant. The data are processed with the Excel software to compare concentration of test compound versus concentration of TNFα and for the calculation of the EC50 for each test compound.
The bioactivity of the compound HAngelylPP was assessed using a TNFα release assay as described above. Compounds (R,S)—BrHPP and (E)-HDMAPP were included for purpose of comparison. […] As will be appreciated, any other suitable assays such as cell amplification may be used in assessing compounds.

A further test relates to γδ T cells. The following applies: reported at best (Wilhelm et al., 2003); cited from earlier work.

Entries after “also recorded” stand apart in the source; their conditions may differ. Like-named read-outs stand apart in the source and are kept apart here. Some results are limits rather than exact numbers.

Consider `CC(O)(CBr)CCOP(=O)(O)OP(=O)(O)O` (racemic) [(R,S)-BrHPP, (R,S)-3-(bromomethyl)-3-butanol-1-yl-diphosphate, reference compound], for which the EC50 was 37.7 nM in test [1] (Homo sapiens, T-cell, TNFα release, 24 hours stimulation at 37° C., relative screening test (FIG. 3), read-out: in vitro EC50) and about 15 nM in test [1] (Homo sapiens, T-cell, prior assays with calibrated cells using a (R,S)-BrHPP-standard composition, read-out: EC50).
For the molecule `NCCC(O)(P(=O)(O)O)P(=O)(O)O` [pamidronate], the “increase in γδ T cell count” value in the test with γδ T cells is at most 2 fold.
With “(Z)-4-hydroxy-2-methylbut-2-enyl pyrophosphate [HAngelylPP]”, in test [1], the “relative potency in words” value is reported as “highly potent; also recorded: the most potent compound of those tested”.
On to “(E)-4-hydroxy-2-methylbut-2-enyl pyrophosphate [HTiglylPP]”, for which the “relative potency in words” value in test [1] is recorded as “highly potent”. Also, the EC50 in test [1] (TNFα release, 24 hours stimulation at 37° C., relative screening test (FIG. 3), read-out: in vitro EC50) amounted to 15 nM.
